This is an account of results in US9358300B2, “Transfection reagents” (LIFE TECHNOLOGIES CORPORATION, priority 1998, dated 2016).

The assay relates to Primary, passaged, normal human fibroblasts (NHFs). The experiment in a line: Transfection of normal human fibroblasts with pCMV SPORT-β-gal DNA, β-gal activity. In kind it is cell-based. To be noted: 40 ng pCMV SPORT-β-gal DNA and 0.1 or 0.2 μl lipid per well, ND = no detectable activity. The procedure:
The cationic lipid reagents and DNA were diluted separately into 25µl aliquots of serum-free DMEM, containing 1% NEAA. For LIPOFECTAMINE® PLUS, 7 14 μl of PLUS reagent was added to the DNA, mixed, and incubated for 15 minutes at room temperature. The diluted DNA was combined with the diluted lipid and incubated at room temperature for at least 15 minutes to allow the DNA and the lipid to form complexes. Following this incubation the complexes were added directly into the culture medium dropwise and mixed by rocking the culture plate back and forth. The cells were further incubated at 37° C. for a total of 24 hours to allow expression of the lacZ transgene encoded by the reporter plasmid, pCMV SPORT-β-gal. At 24 hours post-transfection, the growth medium and transfection complexes were removed from the wells, and the cells in each well were rinsed briefly with 1 ml of D-PBS (Dulbecco's PBS, Life Technologies, Rockville, Md.). The cells in each well were lysed by the addition of 0.15 to 2.0 ml of […]. The plates were frozen at −80° C. for a minimum of 2 hours, and thawed at room temperature or 37° C. The thawed cell lysates were cleared by centrifugation and the supernatants were assayed for β-gal activity using the enzymatic substrate ONPG. The concentration of total protein in cell lysates was also determined using a Bradford assay (Bio-Rad Laboratories, Hercules Calif.). β-gal activity in transfected cell extracts was calculated against a standard curve and expressed as ng β-gal per surface area of tissue culture plate (ng/cm2) to reflect activity per transfection, or as ng β-gal per μg of total protein (ng/μg) to reflect specific activity.
Primary, passaged, normal human fibroblasts (NHFs) were plated in 96-well plates at a density of 1.6×104 cells per well and transfected the following day. Cells in each well were transfected with 40 ng pCMV SPORT-β-gal DNA and 0.1 or 0.2 μl lipid.
The DNA and lipid were diluted separately into 10 μl of DMEM. The DNA was either used alone or pre-mixed with PLUS, insulin, transferrin, or an integrin-targeting peptide prior to complexing with the lipid. After 15 minutes of complexing, the DNA-lipid was added to cells. Cells were assayed for p-gal activity as described above.

For “N^1,N^4-dioleyl-N^1,N^4-di-[2-hydroxy-3-(N-spermine carboxamido)-aminopropyl]-diaminobutane [Compound of Formula VII]”, the “ACTIVITY (β-gal), DNA and PLUS” value (DNA pre-mixed with PLUS Reagent) stood at 637.9 ng/βgal/cm^2. For the same substance, where the note is “DNA pre-mixed with insulin”, the “ACTIVITY (β-gal), DNA and INSULIN” value is on record as 195.7 ng/βgal/cm^2. In addition, the “ACTIVITY (β-gal), DNA and INTEGRIN-TARGETING PRPTIDE” value (DNA pre-mixed with integrin-targeting peptide) is 587.9 ng/βgal/cm^2. Besides, the “ACTIVITY (β-gal), DNA and TRANSFERRIN” value (DNA pre-mixed with transferrin) came out at 21.7 ng/βgal/cm^2. Also, the “ACTIVITY (β-gal), DNA” value (DNA used alone) turned out to be 29.4 ng/βgal/cm^2.
